What follows are molecules tested against IDO (Homo sapiens, UniProt P14902) (assay: LLE_IDO_ABS_DR (IDO assay)).
Sequence of IDO (P14902 whole entry): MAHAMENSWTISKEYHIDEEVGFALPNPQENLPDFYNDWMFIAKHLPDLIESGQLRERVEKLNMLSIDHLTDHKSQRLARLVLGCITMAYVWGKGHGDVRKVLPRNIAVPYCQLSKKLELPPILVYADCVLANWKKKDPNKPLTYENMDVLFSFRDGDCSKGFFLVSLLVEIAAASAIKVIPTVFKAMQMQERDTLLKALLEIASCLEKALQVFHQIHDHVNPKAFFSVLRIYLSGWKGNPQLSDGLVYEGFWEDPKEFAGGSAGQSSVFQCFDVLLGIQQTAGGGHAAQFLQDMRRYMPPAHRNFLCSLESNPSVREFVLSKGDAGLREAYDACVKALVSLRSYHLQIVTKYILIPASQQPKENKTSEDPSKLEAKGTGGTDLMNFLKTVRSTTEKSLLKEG
In the case of `CC(C)CN(c1ccc(-c2cc(F)ccc2C(=O)O)cc1NC(=O)Nc1ccccc1F)C1CCCCC1` [Example 125, 4′-(cyclohexyl(isobutyl)amino)-5-fluoro-3′-(3-(2-fluorophenyl)ureido) biphenyl-2-carboxylic acid], the IC50 is reported as 5.92 nM.
With `Cc1ccc(NC(=O)Nc2cc(-c3ccccc3C(=O)O)ccc2N(CCC(C)C(F)(F)F)C2CCCCC2)cc1` (stereo not drawn) [Example 188, 4′-(cyclohexyl(4,4,4-trifluoro-3-methylbutyl)amino)-3′-(3-(p-tolyl)ureido)-[1,1′-biphenyl]-2-carboxylic acid] the IC50 was 290 nM.
For `O=C(Nc1cc(-c2ccccc2-c2nnn[nH]2)ccc1N(CCC(F)(F)F)Cc1ccc(OC(F)(F)F)cc1)Nc1ccccc1C(F)(F)F` [Example 342, 1-(2′-(1H-tetrazol-5-yl)-4-((4-(trifluoromethoxy)benzyl)(3,3,3-trifluoropropyl)amino)-[1,1′-biphenyl]-3-yl)-3-(2-(trifluoromethyl)phenyl)urea], the IC50 was 170 nM.
With `CC(C)CN(CC(C)C)c1ccc(-c2ccccc2-c2nn[nH]n2)cc1NC(=O)NC(C)(C)Cc1ccc(F)cc1` [Example 240, 1-(4-(diisobutylamino)-2′-(2H-tetrazol-5-yl)-[1,1′-biphenyl]-3-yl)-3-(1-(4-fluorophenyl)-2-methylpropan-2-yl)urea] the IC50 was 2230 nM.
In the case of `CC(C)CN(CC(C)C)c1ccc(-c2ccccc2-c2nnn[nH]2)cc1NC(=O)Nc1ccc(-c2cnco2)cc1` [Example 255, 1-(4-(diisobutylamino)-2′-(1H-tetrazol-5-yl)-[1,1′-biphenyl]-3-yl)-3-(4-(oxazol-5-yl)phenyl)urea], the IC50 is reported as 30 nM.
`Cc1ccc(NC(=O)Nc2cc(-c3cc(F)ccc3C(=O)O)ccc2N(CC(C)C)C2CCC2)cc1` [Example 182, 4′-(cyclobutyl(isobutyl)amino)-5-fluoro-3′-(3-(p-tolyl)ureido)-[1,1′-biphenyl]-2-carboxylic acid] was tested, and the IC50 was 50 nM.
In the case of `CC(C)CN(c1cc(F)c(-c2ccccc2C(=O)O)cc1NC(=O)Nc1ccccc1F)C1CCCCC1` [Example 228, 4′-(cyclohexyl(isobutyl)amio-no)-2′-fluoro-5′-(3-(2-fluorophenyl)ureido) biphenyl-2-carboxylic acid], the IC50 is reported as 1.74 nM.
`Cc1ccc(NC(=O)Nc2cc(-c3cc(F)ccc3C(=O)O)ccc2N(CCC2CC2)CC(C)C)cc1` [Example 130, 4′-((2-cyclopropylethyl) (isobutyl)amino)-5-fluoro-3′-(3-p-tolylureido) biphenyl-2-carboxylic acid] was tested, and the IC50 was 40 nM.
Work on `Cc1ccc(NC(=O)Nc2cc(-c3ccccc3C(=O)NS(C)(=O)=O)ccc2N(CC(C)C)CC(C)C)cc1` [Example 232, 4′-(Diisobutylamino)-N-(methylsulfonyl)-3′-(3-(p-tolyl)ureido)-[1,1′-biphenyl]-2-carboxamide] yielded an IC50 of 660 nM.
Molecule `Cc1ccc(NC(=O)Nc2c(N(CC(C)C)CC(C)C)ccc(-c3ccccc3-c3nnn[nH]3)c2F)cc1` [Example 25, 1-(4-(Diisobutylamino)-2-fluoro-2′-(1H-tetrazol-5-yl)-[1,1′-biphenyl]-3-yl)-3-(p-tolyl)urea] has an IC50 of 30 nM.
`COc1ccccc1NC(=O)Nc1cc(-c2ccccc2-c2nnn[nH]2)ccc1N(CC(C)C)CC(C)C` [Example 281, 1-(4-(diisobutylamino)-2′-(1H-tetrazol-5-yl)biphenyl-3-yl)-3-(2-methoxyphenyl)urea] gave an IC50 of 1450 nM.
Work on `Cc1ccccc1NC(=O)Nc1cc(-c2cccc(F)c2C(=O)O)ccc1N(CC(C)C)CC(C)C` [Example 69, 4′-(diisobutylamino)-3-fluoro-3′-(3-o-tolylureido)biphenyl-2-carboxylic acid] yielded an IC50 of 890 nM.
`Cc1ccc(NC(=O)Nc2cc(-c3ccccc3C(=O)O)ccc2N(CC(F)F)C2CCCCC2)cc1` [Example 196, 4′-(cyclohexyl(2,2-difluoroethyl)amino)-3′-(3-(p-tolyl)ureido)-[1,1′-biphenyl]-2-carboxylic acid] was tested, and the IC50 was 20 nM.
`Cc1ccc(NC(=O)Nc2c(N(CC(C)C)CC(C)C)ccc(-c3ccccc3C(=O)O)c2F)cc1` [Example 26, 4′-(Diisobutylamino)-2′-fluoro-3′-(3-(p-tolyl)ureido)-[1,1′-biphenyl]-2-carboxylic acid] showed an IC50 of 370 nM.
For `Cc1ccc(NC(=O)Nc2cc(-c3ccccc3C(=O)O)ccc2N(CCC(F)(F)F)C2CCCCC2)cc1` [Example 197, 4′-(cyclohexyl(3,3,3-trifluoropropyl)amino)-3′-(3-(p-tolyl)ureido)-[1,1′-biphenyl]-2-carboxylic acid], the IC50 was 10 nM.
Molecule `Cc1ccc(NC(=O)Nc2cc(-c3cc(F)ccc3C(=O)O)ccc2N(C)CC(C)C)cc1` [Example 181, 5-fluoro-4′-(isobutyl(methyl)amino)-3′-(3-(p-tolyl)ureido)-[1,1′-biphenyl]-2-carboxylic acid] has an IC50 of 270 nM.
Molecule `Cc1ccc(NC(=O)Nc2cc(-c3ccccc3-c3nnn[nH]3)ccc2N(CC(C)C)C2CCC2)cc1` [Example 184, 1-(4-(cyclobutyl(isobutyl)amino)-2′-(1H-tetrazol-5-yl)-[1,1′-biphenyl]-3-yl)-3-(p-tolyl)urea] has an IC50 of 10 nM.
`CCC1CCCCN1c1ccc(-c2ccccc2-c2nnn[nH]2)cc1NC(=O)Nc1ccccc1F` (stereo not drawn) [Example 109, 1-(4-(2-ethylpiperidin-1-yl)-2′-(1H-tetrazol-5-yl)biphenyl-3-yl)-3-(2-fluorophenyl)urea] showed an IC50 of 410 nM.
`CC(C)CN(c1cc(F)c(-c2ccccc2C(=O)O)cc1NC(=O)Nc1ccc(F)cc1F)C1CCCCC1` [Example 230, 4′-(cyclohexyl(isobutyl)ami-no)-5′-(3-(2,4-difluorophenyl)ureido)-2′-fluorobiphenyl-2-carboxylic acid] was tested, and the IC50 was 2.14 nM.
Work on `Cc1ccc(NC(=O)Nc2cc(-c3cc(F)ccc3C(=O)O)ccc2N(Cc2ccc(Cl)cc2)C2CCCCC2)cc1` [Example 469] yielded an IC50 of 720 nM.
`CCCN(Cc1ccccc1)c1ccc(-c2ccccc2-c2nnn[nH]2)cc1NC(=O)Nc1ccc(C)cc1` [Example 185, 1-(4-(benzyl(propyl)amino)-2′-(1H-tetrazol-5-yl)-[1,1′-biphenyl]-3-yl)-3-(p-tolyl)urea] was tested, and the IC50 was 2.63 nM.
Work on `CC(C)CN(c1ccc(-c2ccccc2C(=O)O)cc1NC(=O)Nc1ccccc1F)C1CCCC1` [Example 173, 4′-(cyclopentyl(isobutyl)amino)-3′-(3-(2-fluorophenyl)ureido) biphenyl-2-carboxylic acid] yielded an IC50 of 10 nM.
Molecule `CC(C)CN(CC(C)C)c1ccc(-c2ccccc2-c2nnn[nH]2)cc1NC(=O)Nc1ccc(C(F)(F)F)cc1` [Example 249] has an IC50 of 140 nM.
`Cc1ccc(NC(=O)Nc2cc(-c3cscc3C(=O)O)ccc2N(CC(C)C)CC(C)C)cc1` [Example 35, 4-(4-(Diisobutylamino)-3-(3-p-tolylureido)phenyl)thiophene-3-carboxylic acid] showed an IC50 of 10 nM.
Work on `Cc1ccc(NC(=O)Nc2cc(-c3ccccc3C(=O)O)ccc2N(C)C2CCCCCC2)cc1` [Example 80, 4′-(cycloheptyl(methyl)amino)-3′-(3-p-tolylureido)biphenyl-2-carboxylic acid] yielded an IC50 of 8.75 nM.
With `CCCN(c1ccc(-c2ccccc2-c2nnn[nH]2)cc1NC(=O)Nc1ccc(C)cc1)C1CCCCC1` [Example 85, 1-(4-(cyclohexyl(propyl)amino)-2′-(1H-tetrazol-5-yl)biphenyl-3-yl)-3-p-tolylurea] the IC50 was 1.65 nM.
With `CC(C)CN(CC(C)C)c1ccc(-c2ccccc2-c2nnn[nH]2)cc1NC(=O)Nc1c(F)cc(F)cc1F` [Example 282, 1-(4-(diisobutylamino)-2′-(1H-tetrazol-5-yl)-[1,1′-biphenyl]-3-yl)-3-(2,4,6-trifluorophenyl)urea] the IC50 was 8.2 nM.
